Usually melting point stands for the temperature of the solid-liquid transition.

Our source for the melting point values is a melting point compilation (Tetko et al.).

SMILES strings stand for the structures.

Consider `Cc1ccc(Cl)cc1C`, for which the melting point is -6 °C. The result for `CC(O)c1cc(C(F)(F)F)cc(C(F)(F)F)c1` (centres undefined) reads 72 °C; that for `CCCSc1sc(C(=O)OCC)c2c1C(=O)CCC2`, 136 to 139 °C; that for `Oc1ncccc1Br`, 187 °C.

`ClCc1nnc(-c2ccc(Cl)cc2)o1`: the melting point lay in the range of 81 to 85 °C. As for `CC(=O)c1ccc(C)cc1`, the figure is 28 °C; as for `COCCOc1ccccc1S(=O)(=O)NC(=O)Nc1nc(OC)nc(OC)n1`, 130 °C.

Consider `Cc1oncc1C(=O)O`, for which the melting point was found to be 147 °C. As for `OCc1ccc(-c2cccnc2)cc1`, the figure is 106 to 107 °C; as for `Cc1ccc(S(=O)(=O)N2CCCN(S(=O)(=O)c3ccc(C)cc3)CC(=O)NCCCNC(=O)C2)cc1`, 159 °C.

In turn, `CC12CCC(/C(=C\Nc3ccccc3C(=O)O)C1=O)C2(C)C` (centres undefined) came in with a melting point of 176 °C. In the case of `CCOC(=O)c1c(C)sc(Sc2ccccc2[N+](=O)[O-])c1O`, the melting point was 144 to 146 °C. With `ClCc1nnc(-c2ccc3ccccc3c2)o1`, the melting point was in the range of 128 to 130 °C.

In turn, `COc1ccc(C=CC(=O)C=Cc2ccc(OC)cc2)cc1` returned a melting point of 129 °C. The molecule `O=C(O)C1CCCO1` (centres undefined) gave a melting point of 21 °C. With `COc1cccc(P(c2cccc(OC)c2)c2cccc(OC)c2)c1`, the melting point was 115 °C. As to `O=Cc1cccc(-n2cccn2)c1`, the melting point lay within 38 to 39 °C. `N#CC(=Cc1ccc(O)cc1)C(=O)O` registered a melting point of 250 to 253 °C. `c1cncc(-c2ccnc(-c3cccnc3)c2)c1` returned a melting point of 148 °C. As for `O=Cc1cc(F)ccc1Br`, the figure is 54 °C; as for `O=C(O)Cn1c(CN2CCOCC2)nc2ccccc21`, 214 to 218 °C; as for `O=C(O)c1cc([N+](=O)[O-])cc(C(F)(F)F)c1`, 130 °C.

For the molecule `CO[C@]1(CBr)O[C@H](COC(=O)c2ccc(C)cc2)[C@@H](OC(=O)c2ccc(C)cc2)[C@@H]1OC(=O)c1ccc(C)cc1`, the melting point lay within 148 to 149 °C. As for `FC(F)(F)c1cc(Cl)c2cc(CBr)ccc2n1`, the figure is 119 to 123 °C; as for `CCCC(O)C=CC=CC=CC#CC#CCCCO` (centres undefined), 54 °C. In turn, `Cc1onc(-c2ccccc2)c1CBr` came in with a melting point of 61 to 63 °C. The result for `CCOC(=O)C=Cc1cc(C=CC(=O)OCC)c([N+](=O)[O-])cc1[N+](=O)[O-]` reads 116 °C. As for `Oc1cccnc1I`, the figure is 193 °C.

For `CC1Cc2c(Cl)cc(C(=O)NC(Cc3ccccc3)C(=O)O)c(O)c2C(=O)O1` (centres undefined), the melting point is 169 °C. As for `CN(C)c1ccc2c(C(F)(F)F)cc(=O)oc2c1`, the melting point fell in the range of 147 to 149 °C. On to `Cc1cc(C)n2nc(N)c(/N=N/c3cc(Cl)c(Cl)cc3Cl)c2n1`, for which the melting point is 295 °C.

As to `COc1ccc(-n2nc(C(=O)c3cccs3)s/c2=N/C(=O)c2ccccc2)cc1`, the melting point is 235 °C.

In turn, `O=C(OCCOc1cc(OCCOC(=O)c2ccccc2)c([N+](=O)[O-])cc1[N+](=O)[O-])c1ccccc1` showed a melting point of 165 °C. The result for `COc1nc(C)nc(NC(=O)NS(=O)(=O)c2ccccc2OCCCl)n1` reads 189 °C. The result for `CCOC(=O)C(C#N)=Cc1ccc(-c2ccccc2Br)o1` reads 123 to 124 °C; that for `O=CC=P(c1ccccc1)(c1ccccc1)c1ccccc1`, 186 °C; that for `OCc1ccc2nsnc2c1`, 58 to 63 °C. Regarding `OC(c1ccc(F)cc1)c1ccc(F)cc1`, the melting point came out at 47 °C. As for `O=C(Nc1nc(-c2ccc(Cl)cc2)cs1)c1ccccc1`, the figure is 120 °C; as for `CCCCCCCCC(C)=O`, 14 °C; as for `O=C(O)c1cncc(C(=O)O)c1`, 324 °C. The molecule `O=[N+]([O-])c1ccc(-n2cc[nH]c2=S)cc1` had a melting point of 232 to 233 °C. In turn, `NC(=O)/C(=N\Nc1cc(Cl)ccc1Cl)c1nc2ccccc2s1` had a melting point of 270 °C. With `O=C(O)c1cccc2c1Cc1ccccc1-2`, the melting point is 247 °C. Turning to `CC(=O)c1ccc2c(c1)Cc1ccccc1-2`, the melting point is 130 °C.

Molecule `CCN(CC)C(=O)C1CN2CCc3cc(OC)c(OC)cc3C2CC1OC(C)=O` (centres undefined) had a melting point of 131 °C. As for `CC(/C=C(C)/C=C/c1ccccc1)=NNS(=O)(=O)c1ccc(C)cc1`, the figure is 138 to 142 °C; as for `CC1=Cc2ccccc2C1O` (centres undefined), 87 °C. In turn, `CC(=O)NC(=O)c1ccccc1O` registered a melting point of 148 °C. Regarding `O=C(O)c1cc([N+](=O)[O-])cc(S(=O)(=O)Nc2ccccc2)c1`, the melting point was 177 °C. The molecule `O=C1CCSc2ccc(Cl)cc21` registered a melting point of 64 to 65 °C. Consider `CCCCCC#CCO`, for which the melting point is -18 °C.

For `O=C(Nc1ccccc1/C=C/c1ccccc1)c1ccccc1`, the melting point is 168 °C. As for `Fc1ccc(P(c2ccc(F)cc2)c2ccc(F)cc2)cc1`, the figure is 80 °C.

`Cc1cc(C)c(C=O)c(C)c1` registered a melting point of 14 °C. As for `CON(C)C(=O)Nc1ccc(Br)c(Cl)c1`, the figure is 96 °C; as for `O=C(O)CCCOc1ccccc1`, 63 °C. The result for `CC(C)(C)OC(=O)N=NC(=O)OC(C)(C)C` reads 90 to 92 °C; that for `CC(=O)Oc1nc(CCc2ccccc2)nn1-c1ccccc1`, 109 °C. As for `FC(F)(Cl)C(Cl)(Cl)C(F)(F)Cl`, the melting point is -42.9 °C. For the molecule `CC12CCC(C1(C)C)C(C/C=C\c1ccccc1)(C1(C/C=C/c3ccccc3)C(=O)C3(C)CCC1C3(C)C)C2=O` (centres undefined), the melting point came to 188 °C.

The molecule `Brc1ccc2cccnc2c1` yielded a melting point of 34 °C. The result for `CC(=O)N(C(C)=O)c1ccc(N=Nc2ccccc2C)cc1C` reads 75 °C; that for `Nc1n[nH]c(N)c1Cc1ccc(F)cc1`, 159 to 161 °C; that for `Clc1cccc(C(Cl)(Cl)Cl)c1`, 0.6 °C. The result for `COc1cc2nc(N3CCN(C(=O)c4ccco4)CC3)nc(N)c2cc1OC` reads 285 °C. On to `BrCc1ccc2nonc2c1`, for which the melting point lay in the range of 77 to 80 °C. The result for `Cc1cc(O)nc(N)n1` reads 300 °C; that for `CC(C)(C)OC(=O)N1CCC(c2nc(C=O)cs2)CC1`, 91 to 93 °C. Regarding `O=C(CBr)c1ccc(F)c(F)c1`, the melting point lay within 28 to 30 °C. As for `CCC(C(=O)O)C1(O)CCC(c2ccccc2)CC1` (centres undefined), the figure is 157 °C.

For the molecule `NC(=O)NC(CC(=O)O)C(=O)O` (racemic), the melting point lay within 174 to 175 °C.

As for `NCCS(=O)(=O)O`, the melting point came to 328 °C.

`Cc1ccc(C=O)c2ccccc12` gave a melting point of 31 to 33 °C. On to `O=C1CCCCCCCN1`, for which the melting point is 78 °C. The result for `C1CC2OC2CC1C1CO1` (centres undefined) reads -109 °C. For the molecule `COc1ccc(C=CNC=O)cc1`, the melting point was found to be 132 °C.

`NC(=S)COc1ccccc1Cl` returned a melting point of 116 to 117 °C.

In turn, `COc1ccccc1NC(=O)c1cnc(C(C)(C)C)cn1` showed a melting point of 78 °C. As for `CCCCCOc1ccc(-c2ccc(C#N)cc2)cc1`, the figure is 48 °C. The molecule `NC(=O)c1ccccc1OCC(=O)O` displayed a melting point of 221 °C.

With `CCOC(=O)c1cc2c(=O)oc3ccccc3c2n(Cc2ccccc2)c1=O`, the melting point came to 212 °C.

Regarding `Cc1cccc(C)c1NC(N)=S`, the melting point amounted to 195 °C. The result for `CCCC#CCCCCCC` reads -74.7 °C; that for `CCOC(=O)C1=C(C)OC(N)=C(c2nc3ccccc3s2)C1c1ccc(N(C)C)cc1` (centres undefined), 215 °C; that for `CCCc1nc(OC(C)=O)n(-c2ccccc2)n1`, 84 °C. The result for `Cc1c(C)c(O)c(C)c(C)c1O` reads 233 °C; that for `Fc1c(Cl)c(F)c(Br)c(F)c1Cl`, 58 to 59.5 °C; that for `O=C1c2ccccc2C(=O)N1CC#CCCl`, 118 °C. In turn, `N[C@@H](CCCC(=O)O)C(=O)O` came in with a melting point of 206 °C. The result for `COC(=O)C1(S(=O)(=O)c2ccc(Cl)cc2)CC1` reads 116 °C; that for `CCCOC(=O)C(C)c1ccc(-c2ccccc2)c(F)c1` (centres undefined), > 20 °C; that for `CNC1=CC(=O)c2ccccc2C1=O`, 230 °C. As for `CCCNC(N)=S`, the figure is 120 to 123 °C; as for `O=C1OC2(c3ccc(Cl)cc3Oc3cc(Cl)ccc32)c2ccccc21`, 253 to 255 °C; as for `NS(=O)(=O)c1ccc(Oc2ccccc2)cc1`, 131 °C. As for `O=C(O)C1(O)c2ccccc2-c2ccc(Cl)cc21` (centres undefined), the melting point is 152 °C. Consider `CC(=O)c1ccc(OCc2ccc(F)cc2)cc1`, for which the melting point was in the range of 79 to 80 °C.

`Cc1ccc(C(N)C(N)c2ccc(C)cc2)cc1` (centres undefined) displayed a melting point of 113 to 117 °C. As for `Nn1c(Cc2ccc(Cl)cc2)n[nH]c1=O`, the figure is 181 °C; as for `FC(F)(F)S(F)(F)(F)(F)F`, -87 °C; as for `c1cnc2c(c1)ccc1ncccc12`, 79 °C. The result for `Cc1cc(OCc2ccccc2)ccc1[N+](=O)[O-]` reads 70 °C; that for `Cc1ccc2ccc(C)nc2c1`, 61 °C.

Take `CC(N)C(C)(C)C` (centres undefined): the melting point was -20 °C.

The molecule `CN1C(=N)NC(=O)C1Cc1ccc(O)cc1` (centres undefined) yielded a melting point of 221 to 225 °C.

In the case of `O=Cc1ccc2c(Br)cccc2c1`, the melting point is 78 °C. As for `CC1CC2C3CC(F)C4=CC(=O)C=CC4(C)C3C(O)CC2(C)C1C(=O)CO` (centres undefined), the figure is 188 °C; as for `O=C(c1c(F)c(F)c(F)c(F)c1F)c1c(F)c(F)c(F)c(F)c1F`, 93 °C.
